Key:
Carboplatin = compound: C1CC(C1)(C(=O)[O-])C(=O)[O-].N.N.[Pt+2] [Carboplatin]; conditions: max 10 µM
Procedure, shortened: (§1)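 Cancer cell lines were seeded into 1536-well plates in 7.5 μl medium (DMEM/F12 or RPMI, 10% FBS), held 24 hours at 37°C and 5% CO2, and dosed for 72 hours with final DMSO typically 0.2%. Luminescence from CellTiter-Glo 2.0, scaled between blank-well and DMSO-well means, served as viability. The single-agent IC50 was obtained from dose-response fits with a non-linear mixed effects model, each fit being a two-parameter logistic curve.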

AZD5363 = compound: C1CN(CCC1(C(=O)N[C@@H](CCO)C2=CC=C(C=C2)Cl)N)C3=NC=NC4=C3C=CN4 [AZD5363]; conditions: max 10 µM
Procedure, shortened: as §1

AZD1775 = compound: C=CCn1c(=O)c2cnc(Nc3ccc(N4CCN(C)CC4)cc3)nc2n1-c1cccc(C(C)(C)O)n1 [AZD1775]; conditions: max 3 µM
Procedure, shortened: as §1

Trametinib = compound: CC(=O)Nc1cccc(-n2c(=O)n(C3CC3)c(=O)c3c(Nc4ccc(I)cc4F)n(C)c(=O)c(C)c32)c1 [Trametinib]; conditions: max 1 µM
Procedure, shortened: as §1

Paclitaxel = compound: CC(=O)O[C@H]1C(=O)[C@@]2(C)[C@H]([C@H](OC(=O)c3ccccc3)[C@]3(O)C[C@H](OC(=O)[C@H](O)[C@@H](NC(=O)c4ccccc4)c4ccccc4)C(C)=C1C3(C)C)[C@]1(OC(C)=O)CO[C@@H]1C[C@@H]2O [Paclitaxel]; conditions: max 3 µM
Procedure, shortened: as §1

Palbociclib = compound: CC(=O)c1c(C)c2cnc(Nc3ccc(N4CCNCC4)cn3)nc2n(C2CCCC2)c1=O [Palbociclib]; conditions: max 10 µM
Procedure, shortened: as §1

AZD1390 = compound: CC(C)n1c(=O)n(C)c2cnc3cc(F)c(-c4ccc(OCCCN5CCCCC5)nc4)cc3c21 [AZD1390]; conditions: max 0.3 µM
Procedure, shortened: as §1

Venetoclax = compound: CC1(C)CCC(CN2CCN(c3ccc(C(=O)NS(=O)(=O)c4ccc(NCC5CCOCC5)c([N+](=O)[O-])c4)c(Oc4cnc5[nH]ccc5c4)c3)CC2)=C(c2ccc(Cl)cc2)C1 [Venetoclax]; conditions: max 1 µM
Procedure, shortened: as §1

Dasatinib = compound: CC1=C(C(=CC=C1)Cl)NC(=O)C2=CN=C(S2)NC3=CC(=NC(=N3)C)N4CCN(CC4)CCO [Dasatinib]; conditions: max 2 µM
Procedure, shortened: as §1

SG3199 = compound: CC1=CN2[C@@H](C1)C=NC3=CC(=C(C=C3C2=O)OC)OCCCCCOC4=C(C=C5C(=C4)N=C[C@@H]6CC(=CN6C5=O)C)OC [SG3199]; conditions: max 0.001 µM
Procedure, shortened: as §1

AZD2811 = compound: CCN(CCO)CCCOc1ccc2c(Nc3cc(CC(=O)Nc4cccc(F)c4)[nH]n3)ncnc2c1 [AZD2811]; conditions: max 1 µM
Procedure, shortened: as §1

SN-38 = compound: CCc1c2c(nc3ccc(O)cc13)-c1cc3c(c(=O)n1C2)COC(=O)[C@]3(O)CC [SN-38]; conditions: max 0.3 µM
Procedure, shortened: as §1

AZD0156 = compound: CN(C)CCCOc1ccc(-c2ccc3ncc4c(c3c2)n(C2CCOCC2)c(=O)n4C)cn1 [AZD0156]; conditions: max 3 µM
Procedure, shortened: as §1

AZD4320 = compound: CN(CC[C@H](CSC1=CC=CC=C1)NC2=C(C=C(C=C2)S(=O)(=O)NC(=O)C3=CC=C(C=C3)N4CCC(CC4)[C@H](C5=CC=CC=C5C6=CC=C(C=C6)Cl)O)S(=O)(=O)C(F)(F)F)CCO [AZD4320]; conditions: max 1 µM
Procedure, shortened: as §1

Alisertib = compound: COc1cc(Nc2ncc3c(n2)-c2ccc(Cl)cc2C(c2c(F)cccc2OC)=NC3)ccc1C(=O)O [Alisertib]; conditions: max 10 µM
Procedure, shortened: as §1

Etoposide = compound: COc1cc([C@@H]2c3cc4c(cc3[C@@H](O[C@@H]3O[C@@H]5CO[C@@H](C)O[C@H]5[C@H](O)[C@H]3O)[C@H]3COC(=O)[C@H]23)OCO4)cc(OC)c1O [Etoposide]; conditions: max 10 µM
Procedure, shortened: as §1

Gefitinib = compound: COc1cc2ncnc(Nc3ccc(F)c(Cl)c3)c2cc1OCCCN1CCOCC1 [Gefitinib]; conditions: max 10 µM
Procedure, shortened: as §1

Prexasertib = compound: COc1cccc(OCCCN)c1-c1cc(Nc2cnc(C#N)cn2)n[nH]1 [Prexasertib]; conditions: max 1 µM
Procedure, shortened: as §1

Doxorubicin = compound: COc1cccc2c1C(=O)c1c(O)c3c(c(O)c1C2=O)C[C@@](O)(C(=O)CO)C[C@@H]3O[C@H]1C[C@H](N)[C@H](O)[C@H](C)O1 [Doxorubicin]; conditions: max 1 µM
Procedure, shortened: as §1

AZD5153 = compound: COc1nnc2ccc(N3CCC(c4ccc(OCCN5CCN(C)C(=O)[C@H]5C)cc4)CC3)nn12 [AZD5153]; conditions: max 1 µM
Procedure, shortened: as §1

Lapatinib = compound: CS(=O)(=O)CCNCc1ccc(-c2ccc3ncnc(Nc4ccc(OCc5cccc(F)c5)c(Cl)c4)c3c2)o1 [Lapatinib]; conditions: max 10 µM
Procedure, shortened: as §1

AZD8186 = compound: C[C@@H](Nc1cc(F)cc(F)c1)c1cc(C(=O)N(C)C)cc2c(=O)cc(N3CCOCC3)oc12 [AZD8186]; conditions: max 10 µM
Procedure, shortened: as §1

Crizotinib = compound: C[C@@H](Oc1cc(-c2cnn(C3CCNCC3)c2)cnc1N)c1c(Cl)ccc(F)c1Cl [Crizotinib]; conditions: max 10 µM
Procedure, shortened: as §1

Savolitinib = compound: C[C@@H](c1ccc2nccn2c1)n1nnc2ncc(-c3cnn(C)c3)nc21 [Savolitinib]; conditions: max 1 µM
Procedure, shortened: as §1

AZD6738 = compound: C[C@@H]1COCCN1C2=NC(=NC(=C2)C3(CC3)[S@](=N)(=O)C)C4=C5C=CNC5=NC=C4 [AZD6738]; conditions: max 10 µM
Procedure, shortened: as §1

AZD5991 = compound: Cc1c2c(nn1C)CSCc1cc(n(C)n1)CSc1cc(c3ccccc3c1)OCCCc1c(C(=O)O)n(C)c3c-2c(Cl)ccc13 [AZD5991]; conditions: max 1 µM
Procedure, shortened: as §1

AZD7648 = compound: Cc1cc2ncnn2cc1Nc1ncc2c(n1)n(C1CCOCC1)c(=O)n2C [AZD7648]; conditions: max 10 µM
Procedure, shortened: as §1

Taselisib = compound: Cc1nc(-c2cn3c(n2)-c2ccc(-c4cnn(C(C)(C)C(N)=O)c4)cc2OCC3)n(C(C)C)n1 [Taselisib]; conditions: max 10 µM
Procedure, shortened: as §1

Selumetinib = compound: Cn1cnc2c(F)c(Nc3ccc(Br)cc3Cl)c(C(=O)NOCCO)cc21 [Selumetinib]; conditions: max 10 µM
Procedure, shortened: as §1

SRA737 = compound: N#Cc1cnc(Nc2cc(NC[C@H]3CNCCO3)c(C(F)(F)F)cn2)cn1 [SRA737]; conditions: max 10 µM
Procedure, shortened: as §1

MK-2206 = compound: NC1(c2ccc(-c3nc4ccn5c(=O)[nH]nc5c4cc3-c3ccccc3)cc2)CCC1 [MK-2206]; conditions: max 10 µM
Procedure, shortened: as §1

Gemcitabine = compound: Nc1ccn([C@@H]2O[C@H](CO)[C@@H](O)C2(F)F)c(=O)n1 [Gemcitabine]; conditions: max 0.3 µM
Procedure, shortened: as §1

[1] = compound: O=C(Nc1ccc2[nH]nc(-c3ccncc3)c2c1)[C@@H]1CCN(CC(=O)N2CCN(c3ccc(-c4ncccn4)cc3)CC2)C1; conditions: max 5 µM
Procedure, shortened: as §1

Olaparib = compound: O=C(c1cc(Cc2n[nH]c(=O)c3ccccc23)ccc1F)N1CCN(C(=O)C2CC2)CC1 [Olaparib]; conditions: max 10 µM
Procedure, shortened: as §1

5-Fluorouracil = compound: O=c1[nH]cc(F)c(=O)[nH]1 [5-Fluorouracil]; conditions: max 20 µM
Procedure, shortened: as §1

Cell Line | IC50, cell viability 72 h (Carboplatin) | IC50, cell viability 72 h (AZD5363) | IC50, cell viability 72 h (AZD1775) | IC50, cell viability 72 h (Trametinib) | IC50, cell viability 72 h (Paclitaxel) | IC50, cell viability 72 h (Palbociclib) | IC50, cell viability 72 h (AZD1390) | IC50, cell viability 72 h (Venetoclax) | IC50, cell viability 72 h (Dasatinib) | IC50, cell viability 72 h (SG3199) | IC50, cell viability 72 h (AZD2811) | IC50, cell viability 72 h (SN-38) | IC50, cell viability 72 h (AZD0156) | IC50, cell viability 72 h (AZD4320) | IC50, cell viability 72 h (Alisertib) | IC50, cell viability 72 h (Etoposide) | IC50, cell viability 72 h (Gefitinib) | IC50, cell viability 72 h (Prexasertib) | IC50, cell viability 72 h (Doxorubicin) | IC50, cell viability 72 h (AZD5153) | IC50, cell viability 72 h (Lapatinib) | IC50, cell viability 72 h (AZD8186) | IC50, cell viability 72 h (Crizotinib) | IC50, cell viability 72 h (Savolitinib) | IC50, cell viability 72 h (AZD6738) | IC50, cell viability 72 h (AZD5991) | IC50, cell viability 72 h (AZD7648) | IC50, cell viability 72 h (Taselisib) | IC50, cell viability 72 h (Selumetinib) | IC50, cell viability 72 h (SRA737) | IC50, cell viability 72 h (MK-2206) | IC50, cell viability 72 h (Gemcitabine) | IC50, cell viability 72 h [1] | IC50, cell viability 72 h (Olaparib) | IC50, cell viability 72 h (5-Fluorouracil)
OCUM-1 (Gastric Carcinoma) | > 10000 nM | 8900 nM | 1510 nM | 1.85 nM | 2620 nM | > 10000 nM | > 300 nM | > 1000 nM | > 2000 nM | > 1 nM | > 1000 nM | 48.6 nM | > 3000 nM | 571 nM | > 10000 nM | > 10000 nM | > 10000 nM | 78.1 nM | > 1000 nM | 645 nM | > 10000 nM | > 10000 nM | > 10000 nM | > 1000 nM | 2950 nM | > 1000 nM | > 10000 nM | > 10000 nM | 63 nM | > 10000 nM | > 10000 nM | 110 nM | 35.9 nM | > 10000 nM | > 20000 nM
SCC-9 (Oral Cavity Carcinoma) | > 10000 nM | > 10000 nM | 2830 nM | > 1000 nM | 284 nM | > 10000 nM | > 300 nM | > 1000 nM | 1150 nM | > 1 nM | > 1000 nM | > 300 nM | > 3000 nM | > 1000 nM | > 10000 nM | > 10000 nM | > 10000 nM | > 1000 nM | > 1000 nM | > 1000 nM | 5060 nM | > 10000 nM | > 10000 nM | > 1000 nM | > 10000 nM | > 1000 nM | > 10000 nM | 2140 nM | > 10000 nM | > 10000 nM | > 10000 nM | > 300 nM | > 5000 nM | > 10000 nM | > 20000 nM

— the supplement of paper PMC11061612
